Blank lines part the entries; values can stand above or below the molecule they belong to. Active and inactive are the calls of the source.
Legend:
Bcl-2-like protein 10 = Bcl-2-like protein 10 (Homo sapiens, UniProt Q9HD36); assay: Bcl-B/TR3 peptide binding disruption – biochemical, fluorescence polarization, FITC-TR3 peptide, selectivity assay for Bfl-1 inhibitor project, primary screen (AID 748);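 further: fluorescence polarization from a fluorescein-labelled TR3 peptide binding purified Bcl-B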
[1] = Cytotoxicity screening for potential Inhibitors of Bacterial Capsule Biogenesis. [Related pubchem assays (depositor defined):AID488970]; assay type: functional
[2] = biological target: FAD-linked sulfhydryl oxidase ALR (Homo sapiens, UniProt P55789); assay: ALR-catalysed DTT oxidation blockers – biochemical, H2O2 detection, luminescence, cherry-pick, dose response (AID 493248)
[3] = biological target: Sphingosine 1-phosphate receptor 4 (Homo sapiens, UniProt O95977); assay: Late-stage fluorescence dose response cell-based assay to identify agonists of the Sphingosine 1-Phosphate Receptor 4 (S1P4): purchased compounds EC50. [Related pubchem assays (depositor defined):AID1509, AID1523, AID1563, AID1686, AID1701, AID1801]; assay type: functional
Ephrin type-A receptor 4 = Ephrin type-A receptor 4 (Mus musculus, UniProt Q03137); assay: EphA4 ligand-binding antagonists – biochemical, colorimetric, mouse EphA4, primary screen (AID 689); assay type: functional
Trypsin = Trypsin (Sus scrofa, UniProt P00761); assay: trypsin protease activity blockade – biochemical, quenched peptide fluorescence, cherry-pick, selectivity assay for Rce1 protease inhibitor project, dose response (AID 488789)
CAAX prenyl protease 2 = biological target: T1, CAAX prenyl protease 2 (Saccharomyces cerevisiae S288c, UniProt Q03530); assay type: biochemical
T1 sequence (Q03530 whole entry): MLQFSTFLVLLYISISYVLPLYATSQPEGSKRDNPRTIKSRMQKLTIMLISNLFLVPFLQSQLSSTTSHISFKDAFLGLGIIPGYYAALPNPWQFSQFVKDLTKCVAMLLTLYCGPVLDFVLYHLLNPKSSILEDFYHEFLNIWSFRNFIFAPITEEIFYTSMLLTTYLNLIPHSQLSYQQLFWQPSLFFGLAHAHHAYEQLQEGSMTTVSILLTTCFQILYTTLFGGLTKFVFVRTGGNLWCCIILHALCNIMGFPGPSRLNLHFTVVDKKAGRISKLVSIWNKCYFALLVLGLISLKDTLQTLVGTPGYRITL

CAAX prenyl protease 1 = CAAX prenyl protease 1 (Saccharomyces cerevisiae S288c, UniProt P47154); assay: yeast CAAX protease Ste24 inhibition – biochemical, S. cerevisiae, plate reader, cherry-pick, dose response (AID 488815)
[4] = biological target: 1-acylglycerol-3-phosphate O-acyltransferase ABHD5/Perilipin-5 (Homo sapiens, UniProt Q00G26+Q8WTS1); assay: Luminescence-based biochemical high throughput dose response assay for inhibitors of the interaction of the lipase co-activator protein, abhydrolase domain containing 5 (ABHD5) with perilipin-5 (MLDP; PLIN5) (2K validation set). [Related pubchem assays (depositor defined):AID493035, AID493241]
Perilipin-1/ABHD5 = Perilipin-1/ABHD5 (Homo sapiens, UniProt O60240+Q8WTS1); assay: Luminescence-based biochemical high throughput dose response assay for inhibitors of the interaction of the lipase co-activator protein, abhydrolase domain containing 5 (ABHD5) with perilipin-1 (PLIN1) (2K validation set). [Related pubchem assays (depositor defined):AID493027, AID493057]
Perilipin-1/ABHD5, sequence (Q8WTS1 whole entry, the tested form may be a part): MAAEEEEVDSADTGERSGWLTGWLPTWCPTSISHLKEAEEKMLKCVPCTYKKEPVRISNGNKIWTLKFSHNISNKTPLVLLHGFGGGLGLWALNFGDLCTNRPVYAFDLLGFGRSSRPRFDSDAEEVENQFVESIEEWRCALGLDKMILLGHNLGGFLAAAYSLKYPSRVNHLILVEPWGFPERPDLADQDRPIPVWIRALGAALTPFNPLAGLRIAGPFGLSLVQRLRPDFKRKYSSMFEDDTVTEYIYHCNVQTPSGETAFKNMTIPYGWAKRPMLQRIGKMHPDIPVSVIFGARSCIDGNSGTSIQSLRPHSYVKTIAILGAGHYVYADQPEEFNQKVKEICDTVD
Perilipin-1/ABHD5, sequence (O60240 whole entry, the tested form may be a part): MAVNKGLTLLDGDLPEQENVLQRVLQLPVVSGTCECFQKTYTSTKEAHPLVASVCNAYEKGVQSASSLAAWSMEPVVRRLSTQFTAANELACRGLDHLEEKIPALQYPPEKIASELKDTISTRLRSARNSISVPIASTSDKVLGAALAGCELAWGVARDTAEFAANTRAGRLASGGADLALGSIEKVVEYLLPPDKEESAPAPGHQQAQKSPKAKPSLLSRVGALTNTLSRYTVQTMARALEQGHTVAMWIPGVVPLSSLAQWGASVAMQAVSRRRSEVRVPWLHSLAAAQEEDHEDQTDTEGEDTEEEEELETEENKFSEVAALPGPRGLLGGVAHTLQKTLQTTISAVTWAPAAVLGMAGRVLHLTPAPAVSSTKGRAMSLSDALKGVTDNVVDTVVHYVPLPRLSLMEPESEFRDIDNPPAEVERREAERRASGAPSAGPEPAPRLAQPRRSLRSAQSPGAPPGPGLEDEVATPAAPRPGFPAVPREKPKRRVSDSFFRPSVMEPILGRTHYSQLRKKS

FAD-linked sulfhydryl oxidase ALR, sequence (P55789 whole entry): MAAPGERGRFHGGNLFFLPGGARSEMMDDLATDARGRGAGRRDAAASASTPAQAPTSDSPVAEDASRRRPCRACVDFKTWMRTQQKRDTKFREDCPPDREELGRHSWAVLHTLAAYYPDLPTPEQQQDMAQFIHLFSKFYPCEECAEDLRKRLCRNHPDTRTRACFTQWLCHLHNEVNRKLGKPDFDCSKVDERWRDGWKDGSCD
Ephrin type-A receptor 4, sequence (Q03137 whole entry): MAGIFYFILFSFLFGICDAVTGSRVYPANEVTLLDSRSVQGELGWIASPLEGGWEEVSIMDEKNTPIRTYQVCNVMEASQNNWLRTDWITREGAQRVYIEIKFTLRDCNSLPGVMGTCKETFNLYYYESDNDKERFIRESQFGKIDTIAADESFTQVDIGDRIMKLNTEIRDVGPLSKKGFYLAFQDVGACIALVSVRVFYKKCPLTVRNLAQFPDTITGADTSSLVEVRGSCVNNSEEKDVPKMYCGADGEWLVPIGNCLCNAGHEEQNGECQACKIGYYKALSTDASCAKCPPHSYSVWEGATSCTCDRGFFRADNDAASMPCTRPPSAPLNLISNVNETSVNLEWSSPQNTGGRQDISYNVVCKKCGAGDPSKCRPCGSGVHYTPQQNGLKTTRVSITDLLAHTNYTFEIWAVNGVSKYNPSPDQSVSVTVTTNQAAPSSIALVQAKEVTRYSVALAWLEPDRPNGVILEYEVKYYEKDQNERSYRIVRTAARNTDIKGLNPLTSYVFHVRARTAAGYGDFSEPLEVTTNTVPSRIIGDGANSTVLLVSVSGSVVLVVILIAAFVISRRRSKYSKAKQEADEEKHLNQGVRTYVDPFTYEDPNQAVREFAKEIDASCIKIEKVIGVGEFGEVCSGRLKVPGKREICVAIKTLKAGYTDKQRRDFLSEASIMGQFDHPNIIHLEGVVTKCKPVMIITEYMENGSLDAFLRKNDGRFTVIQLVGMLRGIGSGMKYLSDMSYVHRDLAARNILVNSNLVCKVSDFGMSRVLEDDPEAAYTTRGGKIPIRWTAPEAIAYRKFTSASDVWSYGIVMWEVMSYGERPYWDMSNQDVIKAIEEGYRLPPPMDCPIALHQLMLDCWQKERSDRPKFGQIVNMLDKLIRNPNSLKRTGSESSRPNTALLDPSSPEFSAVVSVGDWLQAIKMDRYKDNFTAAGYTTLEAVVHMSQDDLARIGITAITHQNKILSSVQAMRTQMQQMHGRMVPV
1-acylglycerol-3-phosphate O-acyltransferase ABHD5/Perilipin-5, sequence (Q00G26 whole entry, the tested form may be a part): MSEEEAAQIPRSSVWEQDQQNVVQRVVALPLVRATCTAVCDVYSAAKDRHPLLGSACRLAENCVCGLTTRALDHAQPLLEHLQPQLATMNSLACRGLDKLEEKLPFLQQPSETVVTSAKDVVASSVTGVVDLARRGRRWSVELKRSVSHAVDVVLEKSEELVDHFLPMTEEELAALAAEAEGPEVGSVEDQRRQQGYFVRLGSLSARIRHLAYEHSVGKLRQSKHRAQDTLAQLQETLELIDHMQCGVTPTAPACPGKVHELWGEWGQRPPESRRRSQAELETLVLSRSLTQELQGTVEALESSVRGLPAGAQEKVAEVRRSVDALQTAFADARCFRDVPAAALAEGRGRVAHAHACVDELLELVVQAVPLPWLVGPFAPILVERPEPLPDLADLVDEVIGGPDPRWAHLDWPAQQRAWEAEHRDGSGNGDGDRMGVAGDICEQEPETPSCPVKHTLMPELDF
1-acylglycerol-3-phosphate O-acyltransferase ABHD5/Perilipin-5, sequence (Q8WTS1 whole entry, the tested form may be a part): as the sequence (Q8WTS1 whole entry, the tested form may be a part) above
CAAX prenyl protease 1, sequence (P47154 whole entry, the tested form may be a part): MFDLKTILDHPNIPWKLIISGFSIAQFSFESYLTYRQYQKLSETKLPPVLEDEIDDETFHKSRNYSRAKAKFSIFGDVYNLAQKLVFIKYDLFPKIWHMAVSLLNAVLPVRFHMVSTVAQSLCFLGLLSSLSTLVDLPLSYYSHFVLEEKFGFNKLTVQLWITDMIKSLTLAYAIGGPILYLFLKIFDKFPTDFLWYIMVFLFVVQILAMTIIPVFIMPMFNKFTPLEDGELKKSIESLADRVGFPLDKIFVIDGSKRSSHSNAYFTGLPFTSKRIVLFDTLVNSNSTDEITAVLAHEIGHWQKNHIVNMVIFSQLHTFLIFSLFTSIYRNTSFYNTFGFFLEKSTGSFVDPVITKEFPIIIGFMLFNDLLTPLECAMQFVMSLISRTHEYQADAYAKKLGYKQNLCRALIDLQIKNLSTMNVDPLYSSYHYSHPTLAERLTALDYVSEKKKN
Trypsin, sequence (P00761 whole entry): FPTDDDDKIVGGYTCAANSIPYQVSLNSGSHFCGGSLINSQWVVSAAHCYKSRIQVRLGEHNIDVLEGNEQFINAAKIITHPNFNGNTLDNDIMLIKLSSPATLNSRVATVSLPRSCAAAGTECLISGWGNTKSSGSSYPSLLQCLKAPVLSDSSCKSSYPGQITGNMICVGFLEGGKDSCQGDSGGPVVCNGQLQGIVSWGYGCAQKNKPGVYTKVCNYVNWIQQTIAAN
Bcl-2-like protein 10, sequence (Q9HD36 whole entry): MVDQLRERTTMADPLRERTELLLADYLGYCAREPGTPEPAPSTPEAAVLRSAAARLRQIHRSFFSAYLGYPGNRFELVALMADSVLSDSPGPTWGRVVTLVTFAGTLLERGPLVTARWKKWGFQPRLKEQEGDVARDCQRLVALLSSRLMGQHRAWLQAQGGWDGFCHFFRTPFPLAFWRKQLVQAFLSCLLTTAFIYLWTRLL
Sphingosine 1-phosphate receptor 4, sequence (O95977 whole entry): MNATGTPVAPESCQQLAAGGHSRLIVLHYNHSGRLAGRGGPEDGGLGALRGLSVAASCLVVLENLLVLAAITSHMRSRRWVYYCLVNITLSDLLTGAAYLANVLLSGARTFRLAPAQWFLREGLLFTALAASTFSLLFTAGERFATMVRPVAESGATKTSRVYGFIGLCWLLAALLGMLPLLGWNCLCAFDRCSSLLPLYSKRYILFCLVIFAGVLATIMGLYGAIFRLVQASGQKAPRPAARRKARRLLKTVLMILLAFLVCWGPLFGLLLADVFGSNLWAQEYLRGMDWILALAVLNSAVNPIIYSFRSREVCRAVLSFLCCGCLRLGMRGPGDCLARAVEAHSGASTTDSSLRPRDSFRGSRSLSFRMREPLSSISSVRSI

SMILES: O=C(Nc1ccncc1)c1ccc2ncsc2c1
- CC50 [1]: > 100 µM (active)
- AC50 [2]: 1.34 µM (active)

SMILES: Cc1ccc(OCC(=O)Nc2ccc(Cl)cc2)c([N+](=O)[O-])n1
- EC50 [3]: > 50 µM (inactive)

Further lines, results first:

- IC50 (Bcl-2-like protein 10): > 100 µM (inactive)
SMILES: CCn1ccc(C(=O)Nc2ccc(S(=O)(=O)Nc3ccccc3OC)cc2)n1

- IC50 (Ephrin type-A receptor 4): > 100 µM (not active)
- AC50 (Trypsin): 16.6 µM (active)
- AC50 (CAAX prenyl protease 2): 22 µM (active)
- AC50 (CAAX prenyl protease 1): 3.92 µM (active)
SMILES: O=C(O)c1ccc(CN(c2ccccn2)S(=O)(=O)c2ccccc2)cc1

- IC50 [4]: 21.7 µM (inactive)
- IC50 (Perilipin-1/ABHD5): 19 µM (inactive)
SMILES: CC1(c2ccccc2)CC(C)(C)N2C(=O)C(=O)c3cccc1c32 (stereo not given)

Reference: ChEMBL document CHEMBL1201862, “PubChem BioAssay data set” (2004)
